In US20240425460A1, “CRYSTAL FORM OF NIROGACESTAT DIHYDROBROMIDE, AND PREPARATION METHOD THEREFOR, AND USE THEREOF” (CRYSTAL PHARMACEUTICAL (SUZHOU) CO., LTD., priority 2022, published 2024):

Key:
[1] = for Solubility in FaSSIF / Solubility in FeSSIF: 1 h
Description: When solubility test is used to predict the in vivo performance of a drug, it is critical to simulate in vivo conditions as closely as possible. Fasted state simulated intestinal fluid (FaSSIF) and fed state simulated intestinal fluid (FeSSIF) can be used to simulate the conditions in vivo and predict the effects of eating, thus solubilities in these media are closer to those in vivo.
A certain amount of Form CSII and prior art Form A were suspended into FeSSIF and FaSSIF to get saturated solutions at 37° C. After equilibrated for 1 h, concentrations of the saturated solutions were measured by HPLC.
A certain amount of Form CSIII and Form A in the prior art were suspended into FeSSIF and FaSSIF to get saturated solutions at 37° C. After equilibrated for 1 h, concentrations of the saturated solutions were measured by HPLC.

[2] = Morphology by polarized light microscopy; format: physicochemical; conditions: PLM, magnification 100 times
Method: PLM data in the present disclosure were acquired by Sunny CX40P polarizing microscope.
The parameter of the PLM method of the present disclosure is as follows: • Magnification times: 100
About 0.5 mg Form CSII and prior art Form A were placed on a glass slide, a small amount of immersion oil was added to disperse the sample, and then the system was covered with a coverslip.
About 0.5 mg Form CSIII and prior art Form A were placed on a glass slide, a small amount of immersion oil was added to disperse the sample, and then the system was covered with a coverslip.

[3] = Density and flowability (bulk/tapped density, compressibility index); format: physicochemical; conditions: for Compressibility index: c=(ρf−ρ0)/ρf; for Tapped density (ρf): tapped 1250 times
Method: About 300-500 mg of powder were added into a 5-mL measuring cylinder, and a bulk density was recorded. Then the powder was tapped for 1250 times by ZS-2E tap density tester to make it in the tightest state and the tapped volume was recorded. The bulk density (ρ0) and tapped density (ρf) were calculated.
Compressibility also known as the Compressibility index or Carr index is usually utilized to evaluate the flowability of powder or granules during the drug product process. Compressibility index was calculated according to c=(ρf−ρ0)/ρf. According to criteria of flowability recorded in ICH Q4B Annex 13, the smaller the compressibility index, the better the flowability.

[4] = Compressibility (tensile strength after compression at 3 KN); format: physicochemical; conditions: 60 mg, Φ6 mm round tooling, T=2H/πDL
Method: ENERPAC manual tablet press was used for compression. 60 mg of Form CSII and prior art Form A were weighed and added into the dies of a Φ6 mm round tooling, compressed at 3 KN manually, then stored at room temperature for 24 h until elastic recovery is complete, diameter (D) and thickness (L) were tested with a caliper. Hardness (H) was tested with an intelligent tablet hardness tester. Tensile strength of the powder was calculated with the following formula: T=2H/πDL. […] Under a certain force, the greater the tensile strength, the better the compressibility.

physchem = experiment: physchem
Method: 1.9 mg of Form CSII was weighted into a glass vial, then water was added dropwise at 37° C. until the solid is completely dissolved. The maximum insoluble volume and minimum dissolved volume of the sample in water were recorded, and the solubility of Form CSII in water (mg/mL) was calculated.

[5] = Particle size distribution (Mastersizer 3000, wet mode); format: physicochemical
Method: The particle size distribution data in the present disclosure were acquired by a Mastersizer 3000 laser particle size analyzer of Malvern. The test was carried out in wet mode, using a Hydro MV dispersion device, and the dispersant was Isopar G. The parameters are as follows:
Form CSII and prior art Form A were added into glass vials with the Isopar G (containing 0.2% lecithin). The mixture was mixed thoroughly and transferred into the Hydro MV dispersing device. The experiment was started when the obscuration is in appropriate range. The particle size distributions were tested before and after 60 seconds of ultrasonication to obtain the average particle size, D10 (the portion of particles with diameters below this value is 10%), D50 (the portion of particles with diameters below this value is 50%) and D90 (the portion of particles with diameters below this value is 90%), the results are listed in Table 9.

[6] = Stability of drug substance on storage (XRPD, HPLC); format: physicochemical
Method: A certain amount of Form CSII were stored under different conditions of 25° C./60% RH and 40° C./75% RH after packing with different conditions listed in Table 11. Crystalline forms and chemical purities were checked by XRPD and HPLC, respectively.
Sealed with desiccants and antioxidants: Put a sample into a glass vial, cover the vial with aluminum foil, and punch holes in the foil, then seal the glass vial with 2 g silica gel desiccants and 2.2 g antioxidants in an aluminum foil bag.
A certain amount of Form CSIII were stored under different conditions of 25° C./60% RH, 40° C./75% RH and 60° C./75% RH after packing with different conditions listed in Table 16. Crystalline forms were checked by XRPD.
Sealed with desiccants and antioxidants: Put a sample into a glass vial, cover the vial with aluminum foil, and punch holes in the foil, then seal the glass vial with 2 g silica gel desiccant and 2.2 g antioxidant in an aluminum foil bag.

[7] = Stability of crystalline form in formulation process (XRPD); format: physicochemical; conditions: pre-blending, simulated dry granulation, tableting 5 kN
Method: The XRPD of the blank mixed powder and the samples before and after the formulation was tested.

[8] = Physical stability upon mechanical force (tableting, XRPD); format: physicochemical; conditions: 5 kN pressure for 10 s
Description: A certain amount of Form CSII was compressed into a tablet under 5 kN pressure with the dies of a Φ6 mm round tooling by the manual tablet press, and the tablet was kept under 5 kN pressure for 10 s. Crystalline form before and after tableting were checked by XRPD.

[9] = 25° C./60% RH, sealed with desiccant and antioxidant
[10] = 40° C./75% RH, sealed with desiccant and antioxidant

Row | Structure (SMILES) | Solubility in FaSSIF [1] | Solubility in FeSSIF [1] | Morphology [2] | Bulk density (ρ0) [3] | Compressibility index [3] | Tapped density (ρf) [3] | Tensile strength [4] | Average particle size ([5]; ultrasonication time 0 s) | D10 ([5]; ultrasonication time 0 s) | D50 ([5]; ultrasonication time 0 s) | D90 ([5]; ultrasonication time 0 s) | Average particle size ([5]; ultrasonication time 60 s) | D10 ([5]; ultrasonication time 60 s) | D50 ([5]; ultrasonication time 60 s) | D90 ([5]; ultrasonication time 60 s) | Solubility in FaSSIF, times that of prior art Form A [1] | Solubility in FeSSIF, times that of prior art Form A [1] | Time the form keeps stable [6, 9] | Time the form keeps stable [6, 10] | further results
1 | Br.Br.CCC[C@H](N[C@H]1CCc2cc(F)cc(F)c2C1)C(=O)Nc1cn(C(C)(C)CNCC(C)(C)C)cn1 [Form A, (S)-2-(((S)-6,8-difluoro-1,2,3,4-tetrahydronaphthalen-2-yl)amino)-N-(1-(2-methyl-1-(neopentylamino)propan-2-yl)-1H-imidazol-4-yl) pentanamide, reference compound] | 6.7 | 7.6 | agglomerates | 0.251 g/mL | 10.8% | 0.282 g/mL | 0.37 MPa | 646 μm | 21.2 μm | 415 μm | 1640 μm | 629 μm | 14.4 μm | 356 μm | 1660 μm | – | – | – | – | Solubility in water, class by standards of Chinese Pharmacopoeia and United States Pharmacopoeia (physchem): slightly soluble
2 | Br.Br.CCC[C@H](N[C@H]1CCc2cc(F)cc(F)c2C1)C(=O)Nc1cn(C(C)(C)CNCC(C)(C)C)cn1 [Form CSII, (S)-2-(((S)-6,8-difluoro-1,2,3,4-tetrahydronaphthalen-2-yl)amino)-N-(1-(2-methyl-1-(neopentylamino)propan-2-yl)-1H-imidazol-4-yl) pentanamide] | 9.8 | 11.7 | uniform plate crystalline form | 0.49 g/mL | 5.3% | 0.51 g/mL | 0.68 MPa | 198 μm | 21.9 μm | 157 μm | 435 μm | 119 μm | 10.3 μm | 81.7 μm | 282 μm | 1.5 times | 1.5 times | at least 9 months | at least 6 months | Purity after storage ([6]; 25° C./60% RH, 9 months, sealed with desiccants and antioxidants, HPLC): 99.43%; Purity after storage ([6]; 40° C./75% RH, 6 months, sealed with desiccants and antioxidants, HPLC): 99.42%; Purity ([6]; initial, HPLC): 99.37%; Crystalline form after formulation process [7]: remains stable after the formulation process; Crystalline form after tableting [8]: remains stable after tableting; Solubility in water, times that of Form A (physchem): 3-5 times; solubility (physchem; 37 °C, water, thermodynamic from solid): 19 to 38 mg/mL
3 | Br.Br.CCC[C@H](N[C@H]1CCc2cc(F)cc(F)c2C1)C(=O)Nc1cn(C(C)(C)CNCC(C)(C)C)cn1 [Form CSIII, (S)-2-(((S)-6,8-difluoro-1,2,3,4-tetrahydronaphthalen-2-yl)amino)-N-(1-(2-methyl-1-(neopentylamino)propan-2-yl)-1H-imidazol-4-yl) pentanamide] | 8.7 | 11.7 | uniform plate crystalline form | – | – | – | – | – | – | – | – | – | – | – | – | 1.3 times | 1.5 times | at least 3 months | at least 3 months | Time the form keeps stable ([6]; 60° C./75% RH, sealed with desiccants and antioxidants): at least 2 months
